Data as given in patent publication US11939344B2, “Spirocyclic compounds” (ASTRAZENECA AB, priority 2021, dated 2024).

Key:
HCT116 KO-MTAP cells [1] = assay: PRMT5 cell SDMA assay, MTAP KO cells; format: cell-based; conditions: Homo sapiens
HCT116 WT cells [2] = assay: PRMT5 cell SDMA assay, MTAP WT cells; format: cell-based; conditions: Homo sapiens
HCT116 KO-MTAP cells [3] = assay: Cell proliferation assay (Alamar Blue), MTAP KO cells; format: cell-based; conditions: Homo sapiens
Description: (§1) Cell Proliferation Assays:
(§2) A day 0 plate is created in parallel but not dosed, after plating 4 μl of Alamar Blue (Thermo #DAL1100) and incubate for 3 h at 37 C, 5% CO2.
(§3) The dosed cell plates were then incubated for 5 days at 37° C. before adding Alamar blue and being read in the Envision following same protocol as for first plate.

HCT116 WT cells [4] = assay: Cell proliferation assay (Alamar Blue), MTAP WT cells; format: cell-based; conditions: Homo sapiens, HCT-116, 120 h, 5 days
Description: as §1, §2, §3

[5] = target: human heterooctameric PRMT5:MEP50 enzyme complex (Homo sapiens, UniProt O14744); assay: biochemical
Description: MTase-GIlo™ PRMT5 Luminescence Assays (PRMT5 Enzyme Assays)
An Mtase-Glo™ methyltransferase Luminescence assay was employed to monitor the conversion of S-Adenosyl methionine (SAM) to S-Adenosyl Homocysteine (SAH) by recombinant PRMT5:MEP50 enzyme complex in the presence or absence of the 5′-Methylthioadenosine (MTA). […] The reaction buffer contained 20 mM Bicine (pH 7.60), 25 mM NaCl, 1 mM DTT and 0.1% (w/v) CHAPS.
All wells were backfilled with the appropriate volume of DMSO to achieve a final concentration of 1% v/v in a 3 μl final assay volume.
After 5 h incubation in room temperature, 1 μL of 0.5% (v/v) TFA was added to each well to quench the methylation reaction.
Data was analysed and the IC50 values were calculated using the Genedata Screener® software.

[6] = HCT-116, 120 h, HCT116 MTAP KO, 5 days, read-out: Cell proliferation IC50 (μM) (MTAP KO)
[7] = HCT-116, column 6, read-out: Cell proliferation IC50 in MTAP KO cells
[8] = HCT-116, HCT116 MTAP KO, 48 hours, read-out: Cell SDMA IC50 (μM) (MTAP KO)
[9] = HCT-116, HCT116 MTAP WT, 48 hours, read-out: Cell SDMA IC50 (μM) (MTAP WT)

Chain of human heterooctameric PRMT5:MEP50 enzyme complex (O14744 whole entry): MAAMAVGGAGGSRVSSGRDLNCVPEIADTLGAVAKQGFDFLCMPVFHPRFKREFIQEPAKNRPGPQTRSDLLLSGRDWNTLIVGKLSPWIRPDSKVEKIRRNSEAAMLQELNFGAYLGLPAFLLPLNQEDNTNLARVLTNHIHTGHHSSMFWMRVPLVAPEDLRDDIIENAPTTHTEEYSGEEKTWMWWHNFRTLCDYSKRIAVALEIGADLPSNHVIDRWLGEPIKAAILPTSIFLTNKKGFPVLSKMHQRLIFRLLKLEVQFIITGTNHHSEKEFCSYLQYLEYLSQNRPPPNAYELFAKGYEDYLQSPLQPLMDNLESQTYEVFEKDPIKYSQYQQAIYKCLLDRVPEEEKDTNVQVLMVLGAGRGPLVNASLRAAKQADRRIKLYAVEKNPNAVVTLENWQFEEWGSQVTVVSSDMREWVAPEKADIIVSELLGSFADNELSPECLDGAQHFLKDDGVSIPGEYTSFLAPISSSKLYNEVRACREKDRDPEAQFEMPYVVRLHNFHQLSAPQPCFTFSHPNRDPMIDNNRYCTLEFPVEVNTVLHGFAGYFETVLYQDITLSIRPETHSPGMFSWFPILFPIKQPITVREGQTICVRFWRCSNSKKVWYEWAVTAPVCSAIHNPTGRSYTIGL
Chain of human heterooctameric PRMT5:MEP50 enzyme complex (Q9BQA1 whole entry partner): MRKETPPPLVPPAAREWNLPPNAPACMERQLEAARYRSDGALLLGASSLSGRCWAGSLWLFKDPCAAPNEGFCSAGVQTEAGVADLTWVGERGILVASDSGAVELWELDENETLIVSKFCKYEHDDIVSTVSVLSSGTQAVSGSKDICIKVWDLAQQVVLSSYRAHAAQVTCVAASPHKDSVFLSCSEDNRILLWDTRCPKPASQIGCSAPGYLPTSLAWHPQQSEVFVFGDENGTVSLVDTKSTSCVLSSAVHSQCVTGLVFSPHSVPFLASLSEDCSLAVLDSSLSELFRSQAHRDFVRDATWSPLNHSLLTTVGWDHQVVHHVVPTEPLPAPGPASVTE

SMILES	IC50 (HCT116 KO-MTAP cells [1]; HCT-116, 48 h, read-out: Cell SDMA IC50 (μM) (MTAP KO)) [µM]	IC50 (HCT116 KO-MTAP cells [1]; HCT-116, read-out: Cell SDMA IC50, MTAP knock out HCT116 cells) [µM]	IC50 (HCT116 WT cells [2]; HCT-116, 48 h, read-out: Cell SDMA IC50 (μM) (MTAP WT)) [µM]	IC50 (HCT116 WT cells [2]; HCT-116, read-out: Cell SDMA IC50, HCT116 wild type cells) [µM]	IC50 (HCT116 KO-MTAP cells [3]; [6]) [µM]	IC50 (HCT116 KO-MTAP cells [3]; [7]) [µM]	IC50 (HCT116 WT cells [4]) [µM]	IC50 (HCT116 KO-MTAP cells [1]; [8]) [µM]	IC50 (HCT116 WT cells [2]; [9]) [µM]	IC50 (HCT116 KO-MTAP cells [1]; HCT-116, column 4, read-out: Cell SDMA IC50, MTAP knock out HCT116 cells) [µM]	IC50 (HCT116 WT cells [2]; HCT-116, column 5, read-out: Cell SDMA IC50, HCT116 wild type cells) [µM]	IC50 [5] [µM]
Nc1nc2cc(CN3C(=O)c4cc(F)ccc4[C@]34CCN(Cc3ccc(F)cc3)C4=O)[nH]c2cc1F [Example 1, (S)-2-((5-Amino-6-fluoro-1H-pyrrolo[3,2-b]pyridin-2-yl)methyl)-5-fluoro-1′-(4-fluorobenzyl)spiro[isoindoline-1,3′-pyrrolidine]-2′,3-dione]	0.0053	0.0053	0.29	0.29	0.16	0.16	> 30					
CC1(CN2CC[C@@]3(C2=O)c2ccc(F)cc2C(=O)N3Cc2cc3nc(N)cc(C#N)c3[nH]2)CC1 [Example 26, (S)-5-Amino-2-((5-fluoro-1′-((1-methylcyclopropyl)methyl)-2′,3-dioxospiro[isoindoline-1,3′-pyrrolidin]-2-yl)methyl)-1H-pyrrolo[3,2-b]pyridine-7-carbonitrile]					0.29		2.3	0.0031	0.093			
Nc1nc2cc(CN3C(=O)c4cc(F)ccc4[C@]34CCN(CCOC(F)(F)F)C4=O)[nH]c2cc1Cl [Example 27, (S)-2-((5-Amino-6-chloro-1H-pyrrolo[3,2-b]pyridin-2-yl)methyl)-5-fluoro-1′-(2-(trifluoromethoxy)ethyl)spiro[isoindoline-1,3′-pyrrolidine]-2′,3-dione]					0.36		> 30	0.0047	0.17			
CN1CC[C@@]2(C1=O)c1ccc(F)cc1C(=O)N2Cc1cc2nc(N)c(F)cc2[nH]1 [Example 10, (S)-2-((5-Amino-6-fluoro-1H-pyrrolo[3,2-b]pyridin-2-yl)methyl)-5-fluoro-1′-methylspiro[isoindoline-1,3′-pyrrolidine]-2′,3-dione]					1.6		> 30	0.023	1.7			
C#CCN1CC[C@@]2(C1=O)c1ccc(F)cc1C(=O)N2Cc1cc2nc(N)c(F)cc2[nH]1 [Example 3, (S)-2-((5-Amino-6-fluoro-1H-pyrrolo[3,2-b]pyridin-2-yl)methyl)-5-fluoro-1′-(prop-2-yn-1-yl)spiro[isoindoline-1,3′-pyrrolidine]-2′,3-dione]					0.32	0.32	> 30	0.013	0.56	0.013	0.56	0.061
Cc1cc(N)nc2[nH]c(CN3C(=O)c4cc(F)ccc4[C@]34CCN(Cc3cc(F)c(F)cc3F)C4=O)cc12 [Example 28, (S)-2-((6-Amino-4-methyl-1H-pyrrolo[2,3-b]pyridin-2-yl)methyl)-5-fluoro-1′-(2,4,5-trifluorobenzyl)spiro[isoindoline-1,3′-pyrrolidine]-2′,3-dione]					0.13		1.4	0.0028	0.071			
Nc1nc2cc(CN3C(=O)c4cc(F)ccc4[C@]34CCN(CC(F)F)C4=O)[nH]c2cc1F [Example 8, (S)-2-((5-Amino-6-fluoro-1H-pyrrolo[3,2-b]pyridin-2-yl)methyl)-1′-(2,2-difluoroethyl)-5-fluorospiro[isoindoline-1,3′-pyrrolidine]-2′,3-dione]					1.9		> 30	0.025	> 1.5			
Cn1cc(C#CCN2CC[C@@]3(C2=O)c2ccc(F)cc2C(=O)N3Cc2cc3nc(N)c(F)cc3[nH]2)cn1 [Example 4, (S)-2-((5-Amino-6-fluoro-1H-pyrrolo[3,2-b]pyridin-2-yl)methyl)-5-fluoro-1′-(3-(1-methyl-1H-pyrazol-4-yl)prop-2-yn-1-yl)spiro[isoindoline-1,3′-pyrrolidine]-2′,3-dione]								0.0094	0.19			
